According to PubChem BioAssay (NCI):
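Protocol summary: plate cells (96-well), add compound at 5 concentrations, incubate 48 h, interpolate endpoints linearly. At the GI50, growth is halved. The concentration for full growth arrest is given as TGI.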

Experiments:
Experiment in all cases: DTP human tumour cell line panel, 48 h
SF-539 CNS = test system: SF-539 CNS
CAKI-1 renal = test system: CAKI-1 renal
PC-3 prostate = test system: PC-3 prostate
K-562 leukemia = test system: K-562 leukemia
OVCAR-4 ovarian = test system: OVCAR-4 ovarian
HCT-116 colon = test system: HCT-116 colon
TK-10 renal = test system: TK-10 renal
HT29 colon = test system: HT29 colon
EKVX NSCLC = test system: EKVX NSCLC
UO-31 renal = test system: UO-31 renal

Structure (SMILES)	TGI (SF-539 CNS) [µM]	TGI (CAKI-1 renal) [µM]	TGI (PC-3 prostate) [µM]	TGI (K-562 leukemia) [µM]	TGI (OVCAR-4 ovarian) [µM]	TGI (HCT-116 colon) [µM]	TGI (TK-10 renal) [µM]	TGI (HT29 colon) [µM]	TGI (EKVX NSCLC) [µM]	GI50 (SF-539 CNS) [µM]	GI50 (CAKI-1 renal) [µM]	GI50 (PC-3 prostate) [µM]	GI50 (K-562 leukemia) [µM]	GI50 (OVCAR-4 ovarian) [µM]	GI50 (HCT-116 colon) [µM]	GI50 (TK-10 renal) [µM]	GI50 (UO-31 renal) [µM]	TGI (UO-31 renal) [µM]	GI50 (HT29 colon) [µM]	GI50 (EKVX NSCLC) [µM]
C=C1C(=O)OC2CC3(CO3)C3C(O)C(O)CC3(C)CC12 (configuration not stated)	39.2	36.6	> 100	> 100	> 100	38	> 100	> 100	37.2											
COc1ccc(/C=C\c2cc(OC)c(OC)c(OC)c2)cc1OCC(=O)Nc1nc2ccc(C(F)(F)F)cc2s1	7.87	> 100	> 100	> 100	> 100	> 100	> 100	> 100	> 100	2.66	3.1	4.32	3.3	4.66	3.29	7.03	3.59	> 100	14.9	6.25
O=C1C=Cc2ccccc2/C1=C/c1[nH]c(=O)[nH]c1O	16.8	42.7	> 100	34	23.4	18.3	85.4	17.1	25.4	3.38	5.7	3.61	2.85	4.22	4.12	10.5	1.78	28.5	4.35	2.46
O=C(Nc1ncc(Cc2ccccc2Cl)s1)c1ccc2c(c1)OCCO2	0.741	> 47.9	> 100	> 100	> 68.2	> 100	> 40	> 48.5	> 100	0.258	0.306	0.417	0.183	0.693	0.335	0.672	1.13	> 100	0.616	0.663
COc1ccc(-c2nc(-c3cn(C)c4ncccc34)cs2)cc1	> 100	> 100	> 100	> 100	> 100	> 100	> 100	> 100	> 100	92.7	18.2	18.3	5.05	> 100	38.4	> 100	> 100	> 100	17.3	17.4
O=C(Nc1ccc(Cl)cc1)c1cc2ccccc2cc1O	> 100		> 100	> 100	> 100	16.5	> 100	> 100	> 100	4.01		2.99	3.02	4.41	2.19	3.93	2.03	> 100	4.09	2.98
CCSc1nc(N=Cc2cccs2)c2cn[nH]c2n1	> 100	> 100	> 100	> 100	67.4	> 100	41.1	80.9	> 100	25.3	18	20.7	26.1	17.8	6.49	9.47	53.5	> 100	16.7	67.8
